Among the data in the pKa sets of Baltruschat and Czodrowski (2020) are pKa values, retold here.

The pKa is the negative logarithm of the acid dissociation constant. Higher therefore signals a weaker acid or stronger base. Molecule `Cc1cc(C)[nH+]c([S-])n1` displayed a pKa (basic group) of 2.8. In turn, `COc1c(C)ncc(CO)c1C=O` returned a pKa (basic group) of 4.75. Where the note is “basic group”, `Cc1ccc(-c2cnc(-c3ccc(Br)cc3)o2)cc1` had a pKa of 0.56. As to `N#CC(C#N)=NNc1c(Cl)cccc1Cl`, the pKa by setting is: (acidic group) 4.7; (basic group) -0.67.

Regarding `O=C(O)c1cc2ccccc2cc1O`, the pKa (acidic group) came to 2.71.

As for `CCOCCn1c(CN2CCC[NH+](CCCCn3cccn3)CC2)nc2ccccc21`, the pKa (basic group) is 4.9. In the case of `CCCCc1cccnn1`, the pKa (basic group) was found to be 3.49. As to `C[NH+](C)CCC/N=C(\c1ccccc1)c1ccccc1Cl`, the pKa (basic group) stood at 3.46.

For the molecule `CCCCB(O)O`, where the note is “acidic group”, the pKa amounted to 10.7.

For the setting “basic group”, `CNC(C)Cc1ccc(OC)c(OC)c1` (centres undefined) had a pKa of 9.8.

`O=C(/C=C(/[70SH])c1ccccc1)Nc1ccccc1` gave a pKa (acidic group) of 4.51. Molecule `O/C(=C/c1ccccn1)c1ccccc1` registered a pKa (acidic group) of 12.2 and a pKa (basic group) of 3.57. In the case of `OCC[NH+](CCc1nnn[nH]1)CCc1nnn[nH]1`, the pKa (acidic group) came out at 4.23. In turn, `COc1cc([N+](=O)[O-])cc(C(=O)N[C@@H]2C[C@H]3CC[C@@H](C2)N3Cc2ccccc2)c1OC` gave a pKa (basic group) of 8.7. Where the note is “basic group”, `CCN(CC)CCNc1cc(C)nc(N)n1` displayed a pKa of 9.55.

Turning to `CCN(CC)Cc1cc(Cl)ccc1[O-]`, where the note is “basic group”, the pKa worked out at 11.2. Under “acidic group”, `Cn1c(=S)[nH]c2cc3c(cc21)CCCC3` had a pKa of 10.8.

On to `N#CC1CN2CCC1CC2` (centres undefined), for which the pKa (basic group) came to 7.85. On to `NCC/C=C/C(=O)[O-]`, for which the pKa (basic group) was found to be 9.95. Regarding `CN(C)c1ccc(/C=N/O)cc1`, the pKa (acidic group) was 11.3. With `C=CCN`, the pKa (basic group) came to 9.74.

Molecule `Cc1cc(N)c2ccccc2c1O` showed a pKa (acidic group) of 10.1. The same measure, in the same setting: as for `Cc1ccccc1NC(=S)c1ccccc1`, the figure is 10.2; as for `[O-]N=C1/C(=N/O)CCC/C1=N\O`, 11.1. In turn, `Cc1ncc[nH]1` registered a pKa (basic group) of 7.97.

Molecule `[S-]c1ccccn1` yielded a pKa (basic group) of 9.89. For the setting “acidic group”, `O=Cc1cccnc1C(=O)O` registered a pKa of 3.7.

Regarding `NS(=O)(=O)c1cccc(C(=O)O)c1`, the pKa (acidic group) was 3.61. Where the note is “acidic group”, `CC(=O)c1ccccc1NN=C1C(=O)CC(C)(C)CC1=O` had a pKa of 10.5. As to `c1nc2cc3c(cc2[nH]1)CCCC3`, the pKa runs as follows: (acidic group) 13.3; (basic group) 5.98. In turn, `Sc1nc2cc3ccccc3cc2[nH]1` displayed a pKa (acidic group) of 9.84. For `CSC(C)=N`, the pKa (basic group) is 6.71. `C[Si](C)(C)CCCN` showed a pKa (basic group) of 10.8.

`O=C1C(O)=C(c2ccccc2)C(=O)c2ccccc21` showed a pKa (acidic group) of 4.35. Consider `C=CCNCCCCCCCCCCC(=O)[O-]`, for which the pKa (basic group) is 9.3.

As for `Nc1nc(C(F)(F)F)c2[nH]cnc2n1`, the pKa runs as follows: (acidic group) 8.87; (basic group) 1.85. `Cc1c(C(=O)[O-])sc2cc(Cn3ccnc3)ccc12` had a pKa (basic group) of 6.35. `C(CN1CCOCC1)CN1CCOCC1` showed a pKa (basic group) of 7.25. On the same count and under the same terms, as for `C[NH2+]CCCNc1c2ccccc2nc2cccc([N+](=O)[O-])c12`, the figure is 6.2. Where the note is “basic group”, `CC(C)(C)c1ccc(C(O)CCCN2CCC(C(O)(c3ccccc3)c3ccccc3)CC2)cc1` (centres undefined) yielded a pKa of 8.6.

As for `C[N+](C)(C)CC(O)CC(=O)O` (centres undefined), the pKa (acidic group) stood at 3.8. With `CCP(=O)(CC)CC=O`, under “acidic group”, the pKa was found to be 10.9. On to `Nc1cc[nH]n1`, for which the pKa (basic group) was determined as 4.11.

In the case of `NNC(=O)C[NH3+]`, the pKa (basic group) stood at 2.38. Where the note is “basic group”, `CCN1CC1` showed a pKa of 7.91. `CN(C)/C=N/c1ccc([N+](=O)[O-])cc1`: the pKa (basic group) was 6.71. On the same count and under the same terms, as for `CN(CC[NH+](C)C)c1ccnc2cccc([N+](=O)[O-])c12`, the figure is 4.86. Where the note is “acidic group”, `Cc1ccc(O)cc1C(=O)O` showed a pKa of 3.92. As for `N#CC(C#N)=NNc1ccccc1C(F)(F)F`, the pKa is, setting by setting: (acidic group) 5; (basic group) -0.7. In turn, `Nc1ccc(-c2cnc(-c3ccc(Br)cc3)o2)cc1` registered a pKa (basic group) of 3.51. In the case of `CC(Br)C(=O)O` (centres undefined), the pKa (acidic group) was found to be 2.97.

`c1ccc2cnccc2c1` showed a pKa (basic group) of 5.36. As to `CCC1(C2=CCCCC2)C(=O)[N-]C(=S)NC1=O`, the pKa (acidic group) was 11.8. With `COc1ccc(O)c(CNC(CO)C(=O)[O-])c1` (centres undefined), the pKa by setting is: (acidic group) 10.4; (basic group) 8.3. `COc1ccc(C(N)=O)cc1` came in with a pKa (basic group) of -1.6. Consider `Cn1cc2ccccc2n1`, for which the pKa (basic group) was determined as 2.13. The molecule `CN(C)C(=O)/C=C(\O)c1ccncc1` showed a pKa (acidic group) of 7.32. In turn, `CC(=O)N(C)CC(=O)O` came in with a pKa (acidic group) of 3.16. As for `COc1cc(CN)ccc1O`, the pKa was 10.5 (acidic group) and 8.94 (basic group).

For `COc1cccc(/C=N/O)c1`, the pKa (acidic group) is 10.6. Consider `CCOCCn1c(N2CCC[NH+](CCCCn3cc(C(=O)[O-])cn3)CC2)nc2ccccc21`, for which the pKa (basic group) is 5.1. `N#CCC[n+]1ccc(C(N)=O)cc1.[Br-]` yielded a pKa (acidic group) of 13.3.

In the case of `COc1cnc[nH+]c1O`, for the setting “acidic group”, the pKa stood at 1.75. Molecule `Cc1cc[nH+]c([O-])n1` showed a pKa (basic group) of 3.15. As for `SCCNc1ccccc1`, the pKa by setting is: (acidic group) 9.5; (basic group) 3.78.

For the molecule `C=C(C)C(=O)OCCN(C)C`, the pKa (basic group) stood at 8.06.
